Test results: BindingDB's records for doi:10.1021/acs.jmedchem.7b00141 (National Institute of Diabetes and Digestive and Kidney …, 2017)

Assays:
[1] = biological target: T1, Sodium-dependent serotonin transporter (Homo sapiens, UniProt P31645); assay: Inhibition of [3H]mazindol binding to recombinant human SERT expressed in HEK293 cell membranes preincubated for 10 mins followed by radioligand addition measured after 90 mins by micro beta scintillation counting analysis
[2] = biological target: Sodium-dependent noradrenaline transporter (Homo sapiens, UniProt P23975); assay: ChEBML_1661745
Description: Inhibition of [3H]mazindol binding to recombinant human NET expressed in HEK293 cell membranes preincubated for 10 mins followed by radioligand addition measured after 90 mins by micro beta scintillation counting analysis

[3] = biological target: T1, Sodium-dependent serotonin transporter; assay: Inhibition of [125I]RTI-55 binding to recombinant human SERT expressed in HEK293 cell membranes preincubated for 10 mins followed by radioligand addition measured after 90 mins by micro beta scintillation counting analysis

T1 sequence (P31645 whole entry): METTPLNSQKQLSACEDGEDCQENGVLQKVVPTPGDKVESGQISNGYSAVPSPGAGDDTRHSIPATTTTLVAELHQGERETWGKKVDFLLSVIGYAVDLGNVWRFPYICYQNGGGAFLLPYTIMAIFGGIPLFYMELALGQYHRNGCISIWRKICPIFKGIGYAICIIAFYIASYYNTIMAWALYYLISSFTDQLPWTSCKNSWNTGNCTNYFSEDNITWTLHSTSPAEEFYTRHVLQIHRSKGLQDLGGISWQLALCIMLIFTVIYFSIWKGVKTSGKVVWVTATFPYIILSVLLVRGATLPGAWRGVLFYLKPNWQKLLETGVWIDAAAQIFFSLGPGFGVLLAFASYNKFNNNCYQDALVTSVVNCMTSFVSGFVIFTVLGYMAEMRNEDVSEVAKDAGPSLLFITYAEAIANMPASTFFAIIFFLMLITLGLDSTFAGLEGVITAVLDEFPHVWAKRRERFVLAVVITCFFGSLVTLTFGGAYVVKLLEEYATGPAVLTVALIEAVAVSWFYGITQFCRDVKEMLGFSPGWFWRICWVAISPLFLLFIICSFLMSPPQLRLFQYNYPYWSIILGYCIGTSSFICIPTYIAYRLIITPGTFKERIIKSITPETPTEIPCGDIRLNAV
Sodium-dependent noradrenaline transporter, sequence (P23975 whole entry): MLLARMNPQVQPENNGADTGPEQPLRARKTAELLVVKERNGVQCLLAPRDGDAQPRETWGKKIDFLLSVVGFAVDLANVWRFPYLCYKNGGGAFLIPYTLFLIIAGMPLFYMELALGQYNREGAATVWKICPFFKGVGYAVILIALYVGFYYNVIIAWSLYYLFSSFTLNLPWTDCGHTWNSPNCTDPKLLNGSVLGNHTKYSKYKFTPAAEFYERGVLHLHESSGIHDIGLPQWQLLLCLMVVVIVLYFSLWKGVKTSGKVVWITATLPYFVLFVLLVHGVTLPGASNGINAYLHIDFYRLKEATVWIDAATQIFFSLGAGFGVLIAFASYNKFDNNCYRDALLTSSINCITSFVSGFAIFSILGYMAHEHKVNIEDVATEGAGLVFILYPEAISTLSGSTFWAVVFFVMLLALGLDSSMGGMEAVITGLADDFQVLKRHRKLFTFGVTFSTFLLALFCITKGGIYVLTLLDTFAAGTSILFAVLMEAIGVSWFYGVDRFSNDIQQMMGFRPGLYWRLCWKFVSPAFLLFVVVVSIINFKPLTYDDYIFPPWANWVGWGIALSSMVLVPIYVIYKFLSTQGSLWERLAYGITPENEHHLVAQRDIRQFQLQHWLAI

Row | SMILES | Ki [1] | Ki [2] | Ki [3]
1 | COC(=O)[C@H]1[C@@H](c2ccc([125I])cc2)CC2CC[C@H]1N2C | 1.3 nM | 70 nM | 
2 | O[C@]1(c2ccc(Cl)cc2)c2ccccc2C2=NCCN21 [Mazanor] | 45 nM |  | 136 nM
